# Laboratory results reported in the SangsterLogP compilation.
# Assay: method code SF-HPLC, from DOI: 10.1021/jf960844v
row,Structure (SMILES),logP
1,CCCCON=C(C)c1cccc(Oc2nc(OC)cc(OC)n2)c1C(=O)OC,4.11
2,CCO/N=C(\C)c1cccc(Oc2nc(OC)cc(OC)n2)c1C(=O)OC,2.96
3,COC(=O)c1c(Oc2nc(OC)cc(OC)n2)cccc1/C(C)=N/OCCCl,3.23
4,CO/N=C(\C)c1cccc(Oc2nc(OC)cc(OC)n2)c1C(=O)OC,2.57
5,CCCO/N=C(\C)c1cccc(Oc2nc(OC)cc(OC)n2)c1C(=O)OC,3.59
6,COC(=O)c1c(Oc2nc(OC)cc(OC)n2)cccc1C(C)=NO,1.93
7,C=C(Br)CON=C(C)c1cccc(Oc2nc(OC)cc(OC)n2)c1C(=O)OC,3.73
8,COC(=O)c1c(Oc2nc(OC)cc(OC)n2)cccc1C(C)=NOCc1ccccc1,4.01
9,COC(=O)c1c(Oc2nc(OC)cc(OC)n2)cccc1C(C)=NOCC(F)(F)F,3.39
10,C=C(Cl)CON=C(C)c1cccc(Oc2nc(OC)cc(OC)n2)c1C(=O)OC,3.63
11,C=CCO/N=C(\C)c1cccc(Oc2nc(OC)cc(OC)n2)c1C(=O)OC,3.13
12,COC(=O)c1c(Oc2nc(OC)cc(OC)n2)cccc1C(C)=NOCCF,2.31
13,COC(=O)c1c(Oc2nc(OC)cc(OC)n2)cccc1C(C)=NOCC=C(Cl)Cl,4.23
14,COC(=O)c1c(Oc2nc(OC)cc(OC)n2)cccc1C(C)=NOC(C)=O,1.68
